Source: patent US11191773B2, “Methods of treatment for bacterial infections” (President and Fellows of Harvard College, priority 2017, dated 2021)
Converted amounts (≈) assume the structure as drawn.

Key:
[1] = tested on: polymyxin-resistant K. pneumoniae (clinical isolate from Brigham and Women's Hospital); format: cell-based; settings: 37° C. for 24 h
Method: The effect of novobiocin/polymyxin combination was further assessed in polymyxin-resistant strains using checkerboard microdilution assays. In these assays, polymyxin-resistant strains (E. coli (clinical isolate from Brigham and Women's Hospital); A. baumannii (ATCC: 19606) mutant that is novobiocin and polymyxin-resistant; and K. pneumoniae (clinical isolate from Brigham and Women's Hospital)) were grown at 37° C. for 24 h.

[2] = tested on: Gram-negative pathogens; assay: Checkerboard microdilution assays between polymyxin B and novobiocin (FIG. 1A-1F); format: cell-based; settings: six strains of FIG. 1A-1F, 37° C. for 24 h
Text: Checkerboard data are representative of at least three biological replicates.

[3] = tested on: Acinetobacter baumannii Novo^R; assay: Minimal inhibitory concentrations, checkerboard microdilution; format: cell-based; settings: Acinetobacter baumannii, 24 h
Method: (§1) Checkerboard microdilution assays between polymyxin B and novobiocin were performed in wild-type strains (unless otherwise noted) grown at 37° C. for 24 h. Checkerboard data (FIG. 1A-1F) are representative of at least three biological replicates. The following strains were tested: A) Wild-type Escherichia coli, ATCC 25922; B) Wild-type Enterobacter cloacae; ATCC 13047) Wild-type Klebsiella pneumoniae, ATCC 700721; D) Wild-type Pseudomonas aeruginosa, ATCC 15692 (PAO1); E) Wild-type Acinetobacter baumannii, ATCC 19606; F) novobiocin-resistant Acinetobacter baumannii, ATCC 19606 gyrB(R150C).

[4] = tested on: Pseudomonas aeruginosa; assay: as above; format: cell-based; settings: Pseudomonas aeruginosa; grown at 37° C. for 24 h; read-out: MIC
Method: as §1

[5] = tested on: Klebsiella pneumoniae; assay: as above; format: cell-based; settings: Klebsiella pneumoniae; grown at 37° C. for 24 h; read-out: MIC
Method: as §1

[6] = tested on: Escherichia coli; assay: as above; format: cell-based; settings: Escherichia coli; grown at 37° C. for 24 h; read-out: MIC
Method: as §1

[7] = tested on: K. pneumoniae, A. baumannii, P. aeruginosa, E. coli; assay: Log(CFU/mL) vs. time curves (FIG. 3); format: cell-based; settings: Novobiocin 50-130 μg/mL, Polymyxin B 1.4-2.0 μg/mL
Method: FIGS. 3A-3D are a set of plots of colony forming units/ml (CFU/ml) over time when untreated, or treated with polymyxin B, novobiocin, or a combination of both. FIG. 3A is a growth curve of Klebsiella pneumoniae. FIG. 3B is a growth curve of Acinetobacter baumannii Novo^R. FIG. 3C is a plot of CFU/ml over time of Pseudomonas aeruginosa. FIG. 3D is a growth curve of Escherichia coli.
Log(CFU/mL) vs. time curves. Overnight cultures were diluted 1:100 and grown at 37° C., 220 rpm until OD600=0.1. This culture was transferred to four sterile 5 mL tubes and treated with polymyxin B, novobiocin, polymyxin B+novobiocin, or no drug and incubated at 37° C., 220 rpm. At each timepoint, 10 μL from each condition was log10 diluted to 10^−7 and subsequently plated on LB Miller agar containing no antibiotic. Time=0 h represents the CFU/mL count immediately after the initial treatment. Y-values of zero indicate fewer than 10,000 CFUs (limit of detection). Strains are identical to those used in FIG. 1. K. pneumoniae: [Novobiocin]=130 μg/mL, [Polymyxin B]=1.4 μg/mL; A. baumannii: [Novobiocin]=100 μg/mL, [Polymyxin B]=2.0 μg/mL; P. aeruginosa: [Novobiocin]=100 μg/mL, [Polymyxin B]=2.0 μg/mL; E. coli: [Novobiocin]=50 μg/mL, [Polymyxin B]=2.0 μg/mL.

[8] = tested on: wild type; assay: Minimum inhibitory concentration assay; format: cell-based, E. coli; settings: Escherichia coli, 15 h, read-out: Minimum inhibitory concentration
Method: (§2) We wondered whether it would be possible to separate novobiocin's ability to suppress the IptFG(ch) defects in vivo from its activity against DNA gyrase, its presumed primary target. […] Minimum inhibitory concentrations were measured after a 15-hr incubation period at 37° C.
(§3) Overnight cultures were prepared by transferring 5 mL of sterile LB Miller media to culture tubes and inoculating with the corresponding organism. The tubes were allowed to shake at 220 rpm, 37° C. overnight. 15 μL of overnight culture was diluted in 15 mL of LB Miller in a Falcon tube and was vortexed to mix. In a 96-well plate, 100 μL of diluted culture was added to each well. To column #1, an additional 100 μL of diluted culture and test compound was added (93.7 μL culture+6.35 μL 10 mg/mL novobiocin) or (94.2 μL culture+5.87 μL 10 mg/mL 1-adamantyl-novobiocin) such that the highest concentration tested was 500 μM. Transferred 100 μL from column #1 into column #2, etc, and mixed each time thoroughly. Repeated serial dilution until column #11. Incubated the plate at 37° C. overnight (˜16 h) and read the turbidity (OD600) using a Spectramax 384 plus plate reader (Molecular Devices).

[9] = tested on: ΔtolC; assay: Minimum inhibitory concentration assay; format: cell-based, E. coli; settings: Escherichia coli, 15 h, read-out: Minimum inhibitory concentration
Method: as §2, §3

[10] = tested on: lptB1; assay: Minimum inhibitory concentration assay; format: cell-based, E. coli; settings: Escherichia coli, 15 h, read-out: Minimum inhibitory concentration
Method: as §2, §3

CO[C@@H]1[C@@H](OC(N)=O)[C@@H](O)[C@H](Oc2ccc3c(O)c(NC(=O)c4ccc(O)c(CC=C(C)C)c4)c(=O)oc3c2C)OC1(C)C [Novobiocin, novobiocin]
synergy with polymyxin B [1]: synergizes with polymyxin B
synergy with polymyxin B [2]: synergizes with polymyxin B to kill Gram-negative pathogens in vitro
MIC [3]: 190 µg/mL
MIC [4]: > 450 µg/mL
MIC [5]: 270 µg/mL
MIC [6]: 20 µg/mL
killing by combination with polymyxin B, CFU/mL over time [7]: synergy is bactericidal
MIC [8]: 62.5 to 125 µM (≈ 38.3 to 76.6 µg/mL)
MIC [9]: 2 µM (≈ 1.23 µg/mL)
MIC [10]: < 0.5 µM
